Measured values: patent publication US20130225578A1, “7-CYCLYLQUINAZOLINE DERIVATIVES AND METHODS OF USE THEREOF” (AMBIT BIOSCIENCES CORPORATION, priority 2010, published 2013)

What was measured:
[1] = target: T1, JAK2 (Homo sapiens, UniProt O60674); assay: Competition binding assay, JAK2
T1 construct: made in house; host or cells: T7 phage display or HEK-293 cells (alternatives)
Method: (§1) Competition binding assays used herein were developed, validated and performed as described in Fabian et al., Nature Biotechnology 2005, 23, 329-336. Kinases were produced as fusions to T7 phage (See, Fabian et al. or WO04/015142) or alternatively, the kinases were expressed in HEK-293 cells and subsequently tagged with DNA for PCR detection (See, WO08/005,310). For the binding assays, streptavidin-coated magnetic beads were treated with biotinylated affinity ligands for […] at rt to generate affinity resins. The liganded beads were blocked with excess biotin and washed with blocking buffer (SeaBlock (Pierce), 1% BSA, 0.05% Tween 20, 1 mM DTT) to remove unbound ligand and to reduce non-specific binding. Binding reactions were assembled by combining kinase, liganded affinity beads, and test compounds in 1× binding buffer (20% SeaBlock, 0.17×PBS, 0.05% Tween 20, 6 mM DTT). Test compounds were prepared as 100× stocks in DMSO and rapidly diluted into the aqueous environment. DMSO was added to control assays lacking a test compound. Primary screen interactions were performed in polypropylene 384-well plates in a final volume of 34 μL, while Kd determinations were performed in polystyrene 96-well plates in a final volume of 135 μL. The assay plates were incubated at room temperature with shaking for 1 hour, long enough for binding reactions to reach equilibrium, and the affinity beads were washed extensively with wash buffer (1×PBS, 0.05% Tween 20) to remove unbound protein. The beads were then resuspended in elution buffer (1×PBS, 0.05% Tween 20, 2 μM non-biotinylated affinity ligand) and incubated at room temperature with shaking for 30 min. The kinase concentration in the eluates was measured by quantitative PCR. Each kinase was tested individually against each compound. Kds were determined using eleven serial threefold dilutions. A selectivity score, which is a quantitative measure of selectivity of a compound against a panel of enzymes, may be calculated for a compound by dividing the number of enzymes for which a compound meets a set criteria, (for example, a binding constant of 100 nM or less), by the total number of enzymes tested.

[2] = target: T2, TYK2 (Homo sapiens, UniProt P29597); assay: Competition binding assay, TYK2
T2 construct: made in house; host or cells: T7 phage display or HEK-293 cells (alternatives)
T2 sequence (P29597 whole entry): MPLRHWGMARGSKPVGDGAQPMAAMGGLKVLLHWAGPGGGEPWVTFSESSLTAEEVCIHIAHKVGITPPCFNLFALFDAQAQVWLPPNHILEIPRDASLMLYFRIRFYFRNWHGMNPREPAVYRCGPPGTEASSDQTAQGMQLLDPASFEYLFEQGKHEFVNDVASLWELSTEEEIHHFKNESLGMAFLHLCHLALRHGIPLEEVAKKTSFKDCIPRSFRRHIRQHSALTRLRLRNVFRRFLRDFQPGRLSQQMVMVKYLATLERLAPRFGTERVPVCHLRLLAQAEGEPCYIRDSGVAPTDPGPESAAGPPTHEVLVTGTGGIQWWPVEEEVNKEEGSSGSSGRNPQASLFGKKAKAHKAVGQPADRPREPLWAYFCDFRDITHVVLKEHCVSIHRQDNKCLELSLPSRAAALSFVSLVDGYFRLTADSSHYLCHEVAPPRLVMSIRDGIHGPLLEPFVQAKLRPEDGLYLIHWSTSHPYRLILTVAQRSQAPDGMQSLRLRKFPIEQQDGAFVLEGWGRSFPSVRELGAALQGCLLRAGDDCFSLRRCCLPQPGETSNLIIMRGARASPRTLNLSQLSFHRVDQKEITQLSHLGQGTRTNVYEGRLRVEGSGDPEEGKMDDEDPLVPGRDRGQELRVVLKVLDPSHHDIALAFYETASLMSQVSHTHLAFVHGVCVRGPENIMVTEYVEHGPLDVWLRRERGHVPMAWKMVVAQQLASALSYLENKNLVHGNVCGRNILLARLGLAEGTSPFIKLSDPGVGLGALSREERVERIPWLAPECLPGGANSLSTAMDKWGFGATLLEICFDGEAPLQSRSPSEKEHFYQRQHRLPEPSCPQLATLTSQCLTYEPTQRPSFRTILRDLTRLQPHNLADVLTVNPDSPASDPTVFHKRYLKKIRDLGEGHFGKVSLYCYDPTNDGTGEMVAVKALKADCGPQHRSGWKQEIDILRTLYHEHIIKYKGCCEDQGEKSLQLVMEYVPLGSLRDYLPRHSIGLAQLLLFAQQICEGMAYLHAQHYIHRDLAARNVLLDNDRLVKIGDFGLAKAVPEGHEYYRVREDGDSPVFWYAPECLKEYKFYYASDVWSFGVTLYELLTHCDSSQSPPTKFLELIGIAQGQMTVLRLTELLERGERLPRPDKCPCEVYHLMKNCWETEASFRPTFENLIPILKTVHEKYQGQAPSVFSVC
Method: as §1

[3] = test system: distinct kinases tested excluding mutant variants, typically 359 or 386 kinases; assay: Kinase panel competition binding, selectivity score; details: compound at 10 μM; fraction of kinases with inhibition of 90% or greater
Method: as §1

[4] = test system: GM-CSFR/JAK2/STAT5 pathway; assay: CSTF-1 cell-based reporter assay (beta-lactamase reporter, GM-CSF stimulated); details: Homo sapiens; csTF-1 cells, GM-CSF 2 ng/mL, 4 hours; read-out: Cell Assay: CS TF-1 reporter assay IC50
Method: CSTF-1 cells are derived from the human erythroleukemia cell line that is growth dependent on GM-CSF and has an intact GM-CSFR/JAK2/STAT5 pathway. The cell line contains stably integrated beta-lactamase reporter gene under the control of the […] (irf 1) response element recognized by the activated transcription factor STAT5. csTF-1 cells (Invitrogen K1219) were washed with assay media (97% OPTIMEM/0.5% dialyzed FBS/0.1 mM NEAA/1 mM Na pyr/P/S) and seeded in the same media at 5×10^5 cell/mL in T150 flask. After 16 hour incubation, cells were seeded at 2×10^5 cell/well in 50 jtl volume, into Costar, clear bottom, 96-well assay plates. Serial dilutions of compounds were added to the plates with final DMSO concentration at 0.5% and GM-CSF at 2 ng/mL and the plates were then incubated at 30° C. and 5% CO2 for 4 hours. The plates were brought to room temperature before adding Substrate Mixture according to manufacturer's protocol (Invitrogen, Catalog #K1085). The assay plates containing the substrate mixture were incubated in the dark at room temperature for 2 hours. Blue and green fluorescence was measured with excitation at 409 nm and emission at 460 nm (for blue) and excitation at 409 nm and emission at 530 nm (for green) using Spectra Max Gemini EM.

[5] = target: T3, JAK3 (Homo sapiens, UniProt P52333); assay: Competition binding assay, JAK3
T3 construct: made in house; host or cells: T7 phage display or HEK-293 cells (alternatives)
T3 sequence (P52333 1-1124): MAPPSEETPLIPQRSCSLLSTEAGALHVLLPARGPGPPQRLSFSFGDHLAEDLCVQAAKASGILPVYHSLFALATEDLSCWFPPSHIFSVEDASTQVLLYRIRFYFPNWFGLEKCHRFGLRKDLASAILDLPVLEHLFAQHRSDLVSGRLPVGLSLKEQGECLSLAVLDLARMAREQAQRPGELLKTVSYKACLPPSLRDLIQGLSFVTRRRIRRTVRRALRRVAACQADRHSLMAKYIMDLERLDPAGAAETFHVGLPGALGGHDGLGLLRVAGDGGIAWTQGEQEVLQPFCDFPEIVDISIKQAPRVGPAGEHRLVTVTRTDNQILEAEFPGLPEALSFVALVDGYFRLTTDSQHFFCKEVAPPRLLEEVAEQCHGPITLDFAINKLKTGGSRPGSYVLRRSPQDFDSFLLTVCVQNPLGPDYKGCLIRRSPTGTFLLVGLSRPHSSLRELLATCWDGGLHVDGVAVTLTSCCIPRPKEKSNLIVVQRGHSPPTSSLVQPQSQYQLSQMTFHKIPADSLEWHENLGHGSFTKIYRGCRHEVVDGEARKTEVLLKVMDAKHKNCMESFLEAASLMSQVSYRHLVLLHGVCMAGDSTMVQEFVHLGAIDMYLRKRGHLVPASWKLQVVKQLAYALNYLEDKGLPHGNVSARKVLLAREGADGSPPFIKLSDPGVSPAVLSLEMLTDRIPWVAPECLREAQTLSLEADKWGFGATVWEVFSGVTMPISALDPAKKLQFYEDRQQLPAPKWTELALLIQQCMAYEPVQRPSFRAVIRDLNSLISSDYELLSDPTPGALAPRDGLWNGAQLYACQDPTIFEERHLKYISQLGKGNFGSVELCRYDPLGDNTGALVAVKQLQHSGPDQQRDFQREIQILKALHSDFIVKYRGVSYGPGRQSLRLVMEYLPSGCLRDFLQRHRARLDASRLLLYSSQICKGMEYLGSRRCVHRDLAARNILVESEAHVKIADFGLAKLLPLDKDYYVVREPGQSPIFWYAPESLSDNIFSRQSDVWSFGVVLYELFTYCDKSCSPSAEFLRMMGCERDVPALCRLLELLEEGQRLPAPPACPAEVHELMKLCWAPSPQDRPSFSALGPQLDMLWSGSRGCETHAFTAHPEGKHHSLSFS
Method: as §1

T1 sequence (O60674 whole entry): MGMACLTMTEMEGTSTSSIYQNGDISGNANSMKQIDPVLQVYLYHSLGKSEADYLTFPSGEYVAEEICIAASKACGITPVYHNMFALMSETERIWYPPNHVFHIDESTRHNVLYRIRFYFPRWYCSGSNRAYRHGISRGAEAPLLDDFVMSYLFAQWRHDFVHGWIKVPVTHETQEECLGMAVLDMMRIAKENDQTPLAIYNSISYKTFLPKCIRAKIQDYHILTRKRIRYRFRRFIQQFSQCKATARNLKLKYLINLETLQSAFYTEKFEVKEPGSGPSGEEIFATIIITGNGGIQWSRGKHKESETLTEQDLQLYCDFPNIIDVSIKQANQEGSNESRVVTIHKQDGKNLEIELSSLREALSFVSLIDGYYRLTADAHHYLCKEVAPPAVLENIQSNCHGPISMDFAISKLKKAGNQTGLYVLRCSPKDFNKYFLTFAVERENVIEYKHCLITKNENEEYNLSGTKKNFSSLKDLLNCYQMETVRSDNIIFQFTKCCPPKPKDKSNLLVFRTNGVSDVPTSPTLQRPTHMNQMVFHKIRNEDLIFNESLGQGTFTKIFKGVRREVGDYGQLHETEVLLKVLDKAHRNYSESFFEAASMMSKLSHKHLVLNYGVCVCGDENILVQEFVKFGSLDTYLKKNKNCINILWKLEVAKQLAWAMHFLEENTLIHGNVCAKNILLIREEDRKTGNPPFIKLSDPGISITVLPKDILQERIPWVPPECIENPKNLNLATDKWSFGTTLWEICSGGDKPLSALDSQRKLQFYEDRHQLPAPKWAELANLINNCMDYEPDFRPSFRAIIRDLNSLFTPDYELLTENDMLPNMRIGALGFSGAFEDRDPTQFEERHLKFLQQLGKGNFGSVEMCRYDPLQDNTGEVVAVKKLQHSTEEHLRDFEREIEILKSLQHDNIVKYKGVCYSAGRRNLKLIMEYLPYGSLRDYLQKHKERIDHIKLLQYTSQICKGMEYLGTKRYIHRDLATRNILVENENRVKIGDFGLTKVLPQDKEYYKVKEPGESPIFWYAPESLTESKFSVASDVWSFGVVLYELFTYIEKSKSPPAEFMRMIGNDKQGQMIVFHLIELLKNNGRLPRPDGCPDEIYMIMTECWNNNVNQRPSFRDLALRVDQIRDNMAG

Compound	Kd [1]	Kd [2]	S-Score: S(10) at 10 μM [3]	IC50 [4]	Kd [5]
Cc1cc(Nc2nc(C(F)(F)c3ccc(F)cc3)nc3cc(-c4cncnc4)ccc23)n[nH]1 [Example 2, 2-(difluoro(4-fluorophenyl)methyl)-N-(5-methyl-1H-pyrazol-3-yl)-7-(pyrimidin-5-yl)quinazolin-4-amine]	≤ 1 nM	≤ 10 nM	A (A≦0.3)	≤ 100 nM	≤ 10 nM
Cc1cc(Nc2nc(C(F)(F)c3ccc(F)cc3)nc3cc(-c4ccccc4O)ccc23)n[nH]1 [Example 5, 2-(2-(difluoro(4-fluorophenyl)methyl)-4-(5-methyl-1H-pyrazol-3-ylamino)quinazolin-7-yl)phenol]	1 to 10 nM	10 to 100 nM	A (A≦0.3)	100 to 500 nM	10 to 100 nM
Cc1cc(Nc2nc(C(F)(F)c3ccc(F)cc3)nc3cc(CN4CCOCC4)ccc23)n[nH]1 [Example 8, 2-(difluoro(4-fluorophenyl)methyl)-N-(5-methyl-1H-pyrazol-3-yl)-7-(morpholinomethyl)quinazolin-4-amine]	≤ 1 nM	≤ 10 nM	D (D>0.5)	≤ 100 nM	≤ 10 nM
Cc1cc(Nc2nc(C(F)(F)c3ccc(F)cc3)nc3cc(C4=CCOCC4)ccc23)n[nH]1 [Example 4, 2-(difluoro(4-fluorophenyl)methyl)-7-(3,6-dihydro-2H-pyran-4-yl)-N-(5-methyl-1H-pyrazol-3-yl)quinazolin-4-amine]	1 to 10 nM	≤ 10 nM	A (A≦0.3)	100 to 500 nM	≤ 10 nM
Cc1cc(Nc2nc(C(F)(F)c3ccc(F)cc3)nc3cc(-c4cnn(C)c4)ccc23)n[nH]1 [Example 1, 2-(difluoro(4-fluorophenyl)methyl)-N-(5-methyl-1H-pyrazol-3-yl)-7-(1-methyl-1H-pyrazol-4-yl)quinazolin-4-amine]	≤ 1 nM	≤ 10 nM	A (A≦0.3)	≤ 100 nM	≤ 10 nM
Cc1cc(Nc2nc(C(F)(F)c3ccc(F)cc3)nc3cc(-c4c(C)noc4C)ccc23)n[nH]1 [Example 6, 2-(difluoro(4-fluorophenyl)methyl)-7-(3,5-dimethylisoxazol-4-yl)-N-(5-methyl-1H-pyrazol-3-yl)quinazolin-4-amine]	1 to 10 nM	≤ 10 nM	B (0.3≦B≦0.4)	100 to 500 nM	≤ 10 nM
Cc1cc(Nc2nc(C(F)(F)c3ccc(F)cc3)nc3cc(N4C[C@H](O)CC4=O)ccc23)n[nH]1 [Example 7, (R)-1-(2-(difluoro(4-fluorophenyl)methyl)-4-(5-methyl-1H-pyrazol-3-ylamino)quinazolin-7-yl)-4-hydroxypyrrolidin-2-one]	≤ 1 nM	≤ 10 nM	D (D>0.5)	100 to 500 nM	≤ 10 nM
Cc1cc(Nc2nc(C(F)(F)c3ccc(F)cc3)nc3cc(C4(O)COC4)ccc23)n[nH]1 [Example 3, 3-(2-(difluoro(4-fluorophenyl)methyl)-4-(5-methyl-1H-pyrazol-3-ylamino)quinazolin-7-yl)oxetan-3-ol]	≤ 1 nM	≤ 10 nM	D (D>0.5)	≤ 100 nM	≤ 10 nM
